According to patent US10961238B2, “Modulators of hedgehog (Hh) signaling pathway” (E-THERAPEUTICS PLC, priority 2016, dated 2021):
Where two headings read alike, the source gives them in different places.

Key:
C3H10T1/2 cells = experiment: C3H assay: differentiation of C3H10T1/2 cells by mSHH, measurement of alkaline phosphatase; format: cell-based, mouse
[1] = test system: SMO L416F mutant cell line; experiment: C3H10T1/2 cell differentiation assay in SMO L416F mutant cell line versus wild type; format: cell-based, mouse; details: for Fold reduction in potency in SMO L416F mutant cell line: SMO L416F mutant cell line compared to the wild type, C3H10T1/2 cell differentiation assay
Description: FIG. 1 is a graph of the percent inhibition of C3H10T1/2 cell differentiation of vismodegib compared to compound of the invention (compound number 174), in wild type versus SMO L416F mutant cell line.
Loss of Potency in C3H10T1/2 Cell Differentiation Assay Associated with Presence of SMO L416F Mutation.
Table 3 below details the number of fold reduction in potency of a range of compounds of the invention when applied to the SMO L416F mutant cell line compared to the wild type. SMO mutation has been described in the literature (Pricl, Sabrina, et al.) as a key mutation causative of vismodegib resistance in the clinic by interfering with drug binding.

SMO = molecular target: T1, SMO (Homo sapiens, UniProt Q99835); experiment: Smoothened (SMO) binding fluorescence polarisation assay (BODIPY-cyclopamine competition); details: SMO binding FP assay versus C3H10T1/2 cellular assay
T1 construct: expressed in transfected cells; host or cells: HEK293
T1 sequence (Q99835 28-787): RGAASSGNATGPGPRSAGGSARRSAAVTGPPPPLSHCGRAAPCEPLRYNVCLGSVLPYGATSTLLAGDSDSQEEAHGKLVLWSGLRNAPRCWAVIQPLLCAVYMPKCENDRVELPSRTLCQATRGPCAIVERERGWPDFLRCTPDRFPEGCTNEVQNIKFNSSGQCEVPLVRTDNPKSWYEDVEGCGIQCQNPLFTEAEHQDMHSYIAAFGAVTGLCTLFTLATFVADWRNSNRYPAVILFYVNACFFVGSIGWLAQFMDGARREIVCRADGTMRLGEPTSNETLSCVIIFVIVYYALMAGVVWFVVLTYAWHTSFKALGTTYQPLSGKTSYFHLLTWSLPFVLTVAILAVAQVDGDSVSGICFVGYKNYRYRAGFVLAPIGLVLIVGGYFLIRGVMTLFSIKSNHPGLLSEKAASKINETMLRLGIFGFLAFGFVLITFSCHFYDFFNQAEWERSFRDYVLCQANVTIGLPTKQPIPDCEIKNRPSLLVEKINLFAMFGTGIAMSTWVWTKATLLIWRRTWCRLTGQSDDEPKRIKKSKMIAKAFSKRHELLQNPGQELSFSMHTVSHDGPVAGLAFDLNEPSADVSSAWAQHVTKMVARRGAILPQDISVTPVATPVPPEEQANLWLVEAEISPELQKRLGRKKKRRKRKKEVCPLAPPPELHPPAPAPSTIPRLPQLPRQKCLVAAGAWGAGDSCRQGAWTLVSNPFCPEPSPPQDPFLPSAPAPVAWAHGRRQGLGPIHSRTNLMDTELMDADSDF
Procedure: Standard Protocol for Smoothened (SMO) Binding Fluorescence Polarisation Assay.
The assay measures the ability of the test compounds to compete with a fluorescently-labelled version of the known ligand, cyclopamine, for binding to SMO. The fluorescent tag used is BODIPY (boron dipyrromethene).
An aliquot of a membrane preparation from a SMO-over-expressing HEK293 cell line is diluted to protein concentration of 0.117 mg/ml in assay buffer (25 mM HEPES, 2 mM EDTA, 0.05% γ-globulin, 0.01% pluronic acid pH7.4, plus protease Inhibitor cocktail). 8.5 μl of the membrane suspension is added to each well of a black, low volume 384 well microtitre plate.
Test compounds are added in a seven point dilution range to the wells containing the membrane preparation. The final DMSO solvent concentration in the wells is maintained at 0.3%. 6.5 μl of a 6.9 nM BODIPY-cyclopamine solution is added to each of the wells (final assay concentration 3 nM).
The plate is sealed and stored in the dark at room temperature for 24 hours prior to measurement of the fluorescence polarisation signal on a Perkin Elmer Envision multi-label reader.
Table 4 below details the ratio of SMO binding compared to the potency in the C3H10T1/2 cellular assay. The small ratio between SMO binding and potency for vismodegib is considered to be reflective of the fact vismodegib acts mainly through inhibition of the SMO protein. The larger ratios for the compound of the invention are considered to be reflective of alternate actions outside of direct SMO inhibition.

[2] = Mus musculus, C3H 10T1/2, C3H10T1/2 cells stimulated with mSHH for 72 hours, alkaline phosphatase activity, read-out: IC50 Ranges

| IC50 (C3H10T1/2 cells; [2]) | Ratio of potency in SMO binding assay to potency in C3H10T1/2 cellular assay (SMO) | IC50 (C3H10T1/2 cells; C3H10T1/2 cells stimulated with mSHH for 72 hours, alkaline phosphatase activity, read-out: IC50 Ranges) | IC50 (C3H10T1/2 cells; Mus musculus, C3H 10T1/2, reference compounds run in the C3H assay, read-out: mean IC50) | SMILES | Fold reduction in potency in SMO L416F mutant cell line [1] | percent inhibition of C3H10T1/2 cell differentiation ([1]; FIG. 1, compared to vismodegib, wild type versus SMO L416F mutant cell line) |
| --- | --- | --- | --- | --- | --- | --- |
| 10 to 100 nM | – | – | – | CC(C)C(CO)NC(=O)N1CC(S(=O)(=O)N2CCC(c3c[nH]c4ncccc34)CC2)C1 (racemic) [Compound 26, N-[1-(Hydroxymethyl)-2-methyl-propyl]-3-[[4-(1H-pyrrolo[2,3-b]pyridin-3-yl)-1-piperidyl]sulfonyl]azetidine-1-carboxamide] | 67 | – |
| 10 to 100 nM | – | – | – | O=C(OC1CCCCC1)N1CC(S(=O)(=O)N2CCC(c3c[nH]c4ncccc34)CC2)C1 [Compound 75, cyclohexyl 3-[4-(1H-pyrrolo[2,3-b]pyridin-3-yl)piperidin-1-yl]sulfonylaze-tidine-1-carboxylate] | 60 | – |
| 10 to 100 nM | – | – | – | O=C(NCCc1cccs1)N1CC(S(=O)(=O)N2CCC(c3c[nH]c4ncccc34)CC2)C1 [Compound 84, 3-[4-(1H-pyrrolo[2,3-b]pyridin-3-yl)piperidin-1-yl]sulfonyl-N-(2-thiophen-2-ylethyl)azetidine-1-carboxamide] | 50 | – |
| 100 to 1000 nM | – | – | – | O=C(N1CCOCC1)N1CC(S(=O)(=O)N2CCC(c3c[nH]c4ncccc34)CC2)C1 [Compound 88, morpholin-4-yl-[3-[4-(1H-pyrrolo[2,3-b]pyridin-3-yl)piperidin-1-yl]sulfonylaze-tidin-1-yl]methanone] | 27 | – |
| 10 to 100 nM | 20 | – | – | CC(C)(C)NC(=O)N1CCC(S(=O)(=O)N2CCC(c3c[nH]c4ncccc34)CC2)CC1 [Compound 107, N-tert-butyl-4-[4-(1H-pyrrolo[2,3-b]pyridin-3-yl)piperidin-1-yl]sulfonylpiper-idine-1-carboxamide] | 56 | – |
| 10 to 100 nM | – | – | – | Cc1noc(C)c1NC(=O)N1CC(S(=O)(=O)N2CCC(c3c[nH]c4ncccc34)CC2)C1 [Compound 120, N-(3,5-dimethyl-1,2-oxazol-4-yl)-3-[4-(1H-pyrrolo[2,3-b]pyridin-3-yl)piperidin-1-yl]sulfonylaze-tidine-1-carboxamide] | 38 | – |
| 10 to 100 nM | 82 | – | – | CC(C)(C)OC(=O)N1CC(S(=O)(=O)N2CCC(c3cnc4occc4c3)CC2)C1 [Compound 124, tert-butyl 3-(4-furo[2,3-b]pyridin-5-ylpiperidin-1-yl)sulfonylaze-tidine-1-carboxylate] | 64 | – |
| 100 to 1000 nM | >17 | – | – | CC(C)(C)CN1CC(S(=O)(=O)N2CCC(c3c[nH]c4ncccc34)CC2)C1 [Compound 143, 3-[1-[1-(2,2-Dimethylpropyl)azetidin-3-yl]sulfonyl-4-piperidyl]-1H-pyrrolo[2,3-b]pyridine] | 21 | – |
| 10 to 100 nM | 66 | – | – | O=C(OCC1CCC1)N1CC(S(=O)(=O)N2CCC(c3cn(C(=O)OCC4CCC4)c4ncccc34)CC2)C1 [Compound 154, cyclobutylmethyl 3-[1-[1-(cyclobutylmethoxycarbonyl)azetidin-3-yl]sulfonylpiper-idin-4-yl]pyrrolo[2,3-b] pyridine-1-carboxylate] | 28 | – |
| < 10 nM | – | – | – | Cc1noc(C)c1OC(=O)N1CC(S(=O)(=O)N2CCC(c3c[nH]c4ncccc34)CC2)C1 [Compound 160, (3,5-dimethyl-1,2-oxazol-4-yl) 3-[4-(1H-pyrrolo[2,3-b]pyridin-3-yl)piperidin-1-yl]sulfonylaze-tidine-1-carboxylate] | 29 | – |
| < 10 nM | – | – | – | CC(C)[C@H]1CC[C@H](C)C[C@@H]1OC(=O)N1CC(S(=O)(=O)N2CCC(c3c[nH]c4ncccc34)CC2)C1 [Compound 166, [(1S,2R,5S)-5-methyl-2-propan-2-ylcyclohexyl] 3-[4-(1H-pyrrolo[2,3-b]pyridin-3-yl)piperidin-1-yl]sulfonylaze-tidine-1-carboxylate] | 51 | – |
| 10 to 100 nM | – | – | – | O=C(OCC1CCCCC1)N1CC(S(=O)(=O)N2CCC(c3c[nH]c4ncccc34)CC2)C1 [Compound 168, cyclohexylmethyl 3-[4-(1H-pyrrolo[2,3-b]pyridin-3-yl)piperidin-1-yl]sulfonylaze-tidine-1-carboxylate] | 33 | – |
| – | – | < 10 nM | – | O=C(NC12CC3CC(CC(C3)C1)C2)N1CC(S(=O)(=O)N2CCC(c3c[nH]c4ncccc34)CC2)C1 [Compound 171, N-(1-adamantyl)-3-[4-(1H-pyrrolo [2,3-b]pyridin-3-yl)piperidin-1-yl]sulfonylaze-tidine-1-carboxamide] | 38 | – |
| 10 to 100 nM | – | – | – | CC(C)(C)NC(=S)N1CC(S(=O)(=O)N2CCC(c3c[nH]c4ncccc34)CC2)C1 [Compound 174, N-tert-butyl-3-[4-(1H-pyrrolo[2,3-b]pyridin-3-yl)piperidin-1-yl]sulfonylaze-tidine-1-carbothioamide] | – | a lower concentration of compound 174 is required to achieve the same percent inhibition of differentiation |
| < 10 nM | – | – | – | CC(C)(C)CC(C)(C)NC(=O)N1CC(S(=O)(=O)N2CCC(c3c[nH]c4ncccc34)CC2)C1 [Compound 175, 3-[4-(1H-pyrrolo[2,3-b]pyridin-3-yl)piperidin-1-yl]sulfonyl-N-(2,4,4-trimethylpentan-2-yl)azetidine-1-carboxamide] | 40 | – |
| 10 to 100 nM | – | – | – | CC(C)(C)OC(=O)N1CC(S(=O)(=O)N2CCC(c3csc4ncccc34)CC2)C1 [Compound 177, tert-butyl 3-(4-thieno [2,3-b]pyridin-3-ylpiperidin-1-yl)sulfonylaze-tidine-1-carboxylate] | 37 | – |
| < 10 nM | – | – | – | O=C(OCc1ccccc1C(F)(F)F)N1CC(S(=O)(=O)N2CCC(c3c[nH]c4ncccc34)CC2)C1 [Compound 216, [2-(trifluoromethyl)phenyl]methyl 3-[4-(1H-pyrrolo[2,3-b]pyridin-3-yl)piperidin-1-yl]sulfonylaze-tidine-1-carboxylate] | 47 | – |
| < 10 nM | – | – | – | COc1ccccc1OC(=O)N1CC(S(=O)(=O)N2CCC(c3c[nH]c4ncccc34)CC2)C1 [Compound 217, (2-methoxyphenyl) 3-[4-(1H-pyrrolo[2,3-b]pyridin-3-yl)piperidin-1-yl]sulfonylaze-tidine-1-carboxylate] | 34 | – |
| 10 to 100 nM | 21 | – | – | Cc1ccnc2[nH]cc(C3CCN(S(=O)(=O)C4CN(C(=O)OC(C)(C)C)C4)CC3)c12 [Compound 223, tert-butyl 3-[4-(4-methyl-1H-pyrrolo[2,3-b]pyridin-3-yl)piperidin-1-yl]sulfonylaze-tidine-1-carboxylate] | 26 | – |
| 100 to 1000 nM | – | – | – | CC(C)(C)OC(=O)N1CCCC(S(=O)(=O)N2CCC(c3c[nH]c4ncccc34)CC2)C1 (centres unmarked) [Compound 248, tert-butyl 3-[4-(1H-pyrrolo[2,3-b]pyridin-3-yl)piperidin-1-yl]sulfonylpiper-idine-1-carboxylate] | 10 | – |
| 10 to 100 nM | – | – | – | CC(C)[C@@H](CO)NC(=O)N1CC(S(=O)(=O)N2CCC(c3c[nH]c4ncccc34)CC2)C1 [Compound 250, N-[(2S)-1-hydroxy-3-methylbutan-2-yl]-3-[4-(1H-pyrrolo[2,3-b]pyridin-3-yl)piperidin-1-yl]sulfonylaze-tidine-1-carboxamide] | 29 | – |
| – | 2.2 | – | 6.3 nM | CS(=O)(=O)c1ccc(C(=O)Nc2ccc(Cl)c(-c3ccccn3)c2)c(Cl)c1 [Vismodegib, reference compound] | 202 | – |
